In patent US9120808B2 (NABRIVA THERAPEUTICS AG, priority 2009, dated 2015):
Where two headings read alike, the source gives them in different places.

How the values were obtained:
TEM-1 β-lactamase = TEM-1 β-lactamase (Escherichia coli, UniProt P62593); assay: Cell-free β-lactamase inhibition study (nitrocefin hydrolysis); assay type: biochemical; conditions: 10 min pre-incubation at 37° C., nitrocefin substrate
Experimental: (§1) Cell-Free-β-Lactamase Inhibition Study
(§2) Assays are performed with β-lactamases expressed in the pET system (Novagen, San Diego, Calif.) without signal peptides. They contain an N-terminal hexa-Histidine tag that is used for purification on Ni-NTA (Qiagen, Hilden, Germany). The compounds are prepared as 50 mM stocks in DMSO and diluted into buffer P1 (50 mM phosphate, pH 7) to a final concentration of 10% DMSO. All further dilutions are done in P2 (P1 with 10% DMSO). Enzyme and compound dilutions are pre-incubated for 10 min at 37° C. and the reaction is started with the addition of pre-warmed (37° C.) nitrocefin at a final concentration of […]. […] The initial velocity is determined and IC50 values are calculated using non-linear regression and sigmoidal dose response analysis with the PRISM 4.0 software (Graphpad Software Inc., San Diego, Calif.).

[1] = tested on: TEM-1 producing E. coli B269 (clinical isolate); assay type: in vivo; conditions: s.c.; 0.5 mg/kg cefepime (0 and 3 h) + 20 mg/kg Example 49 (0, 1.5, 3, 4.5 h after infection)
Experimental: A sepsis model in female NMRI mice was employed using TEM-1 producing E. coli B269 (clinical isolate) as the infecting bacterial strain. In general, the final inoculum given in 0.3 ml per mouse intraperitoneally represented a 100% lethal concentration for systemic infections within 48 hours.
The subcutaneous treatment schedule for the antibiotic at various doses was simultaneous and 3 hours after infection.

Pharmacokinetics in mice = assay type: in vivo; conditions: for AUC / Cmax: mouse, plasma
Experimental: The values of the PK parameters were calculated by standard noncompartmental analysis, using Kinetica 4.2 (InnaPhase). Plasma concentration values below the limit of quantification were taken as 0. The maximum plasma concentration (Cmax) and the time to reach Cmax were determined from observed data.

[2] = tested on: K. pneumoniae ATCC 700603; assay: In-vitro synergy test, MIC by broth/agar dilution; assay type: cell-based
Experimental: (§3) Stock solutions of the test compounds and control antibiotics are prepared in distilled water according to the NCCLS guidelines (NCCLS (National Commitee for Clinical Laboratory Standards). 12(3). 2000. M7-A4). […] All drug weights are corrected for salt forms and refer to the pure drug substance.
(§4) All tested strains and clinical isolates are either purchased from the American Type Culture Collection (ATCC), kindly supplied by A. Georgopoulos (Vienna General Hospital, Vienna, Austria), and I. Chopra (Leeds, UK), collected from the SENTRY study (F. J. Schmitz, Minden, Germany) or from the Sandoz culture collection.
(§5) All strain identities are confirmed by BBL Crystal™ Identification Systems (Beckton Dickinson, Cockeysville, Md., USA). Stock cultures are prepared from broth cultures grown at 35° C. for 18-22 h without agitation and subsequent addition of 5% DMSO (v/v, final concentration) as cryoprotectant and stored frozen in liquid nitrogen.
(§6) Bacterial susceptibility, expressed as MIC, is determined by microbroth dilution technique and agar dilution technique as recommended by the approved standard reference recommendations of the NCCLS.
(§7) The inoculum is prepared by the direct colony suspension method as described by NCCLS. For this purpose the bacteria are grown on blood agar plates at 35° C. for 24 h. Subsequently 3-5 single colonies are suspended in 5 ml liquid medium. The bacteria are then incubated for 5 h to reach the logarithmic growth phase and subsequently diluted with medium or NaCl (0.86%) to reach a final living cell count equivalent to 10^8 CFU/ml. Then the bacterial suspension is diluted 1:10 and 1 μl (10^4 CFU; final inoculoum 10^5 CFU/ml) is transferred to the test medium containing the antibacterial substances by a multipoint inoculator (Dynatech, Chantilly, Va., USA). The plates are then incubated at 35° C. for 24 h. The MIC is determined optically and defined as the minimum inhibitory concentration [μg/ml] of antibiotic at which no visible bacterial growth occurs.

C. freundii 7023771 = assay: In-vitro synergy test, MIC by broth/agar dilution; assay type: cell-based
Experimental: as §3, §4, §5, §6, §7

E. cloacae 83989 = assay: In-vitro synergy test, MIC by broth/agar dilution; assay type: cell-based
Experimental: as §3, §4, §5, §6, §7

SHV-1 β-lactamase = SHV-1 β-lactamase (Klebsiella pneumoniae, UniProt P0AD64); assay: Cell-free β-lactamase inhibition study (nitrocefin hydrolysis); assay type: biochemical; conditions: 10 min pre-incubation at 37° C., nitrocefin substrate
Chain of SHV-1 β-lactamase (P0AD64 whole entry, looked up): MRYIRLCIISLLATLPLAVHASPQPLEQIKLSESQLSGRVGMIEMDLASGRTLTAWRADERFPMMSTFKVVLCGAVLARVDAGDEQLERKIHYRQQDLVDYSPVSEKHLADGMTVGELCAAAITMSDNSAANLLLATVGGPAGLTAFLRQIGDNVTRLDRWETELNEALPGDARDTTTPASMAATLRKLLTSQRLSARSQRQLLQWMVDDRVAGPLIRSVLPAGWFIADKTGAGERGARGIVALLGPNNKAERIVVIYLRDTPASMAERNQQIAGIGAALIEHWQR
Experimental: as §1, §2

[3] = MIC of cefepime with 17 μM Example 49
[4] = MIC of ceftazidime with 68 μM Example 49

Chain of TEM-1 β-lactamase (P62593 whole entry, looked up): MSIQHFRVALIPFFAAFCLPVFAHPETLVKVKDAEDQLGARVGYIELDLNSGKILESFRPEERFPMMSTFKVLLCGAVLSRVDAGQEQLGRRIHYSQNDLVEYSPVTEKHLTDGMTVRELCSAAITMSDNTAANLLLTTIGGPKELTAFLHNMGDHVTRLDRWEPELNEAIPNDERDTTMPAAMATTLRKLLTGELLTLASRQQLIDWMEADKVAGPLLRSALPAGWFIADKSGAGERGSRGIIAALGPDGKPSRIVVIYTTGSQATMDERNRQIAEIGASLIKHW

| Compound | IC50 (TEM-1 β-lactamase) | IC50 (SHV-1 β-lactamase; SHV-1, read-out: IC50) | also measured |
| --- | --- | --- | --- |
| CC1CC(=C2O[C@@H]3CC(=O)N3C2C(=O)O)C(=O)O1 (single isomer, unassigned) [Example 49] | 1.8 nM |  | survival, combination of cefepime and Example 49 [1]: survival of all animals; AUC (Pharmacokinetics in mice; oral 25 mg/kg): 1090 ng·h/mL; Cmax (Pharmacokinetics in mice; oral 25 mg/kg (cremophor EL/ethanol/glucose in saline), read-out: peak plasma concentration (Cmax)): 2220 ng/mL; AUC (Pharmacokinetics in mice; sc, subcutaneous 10 mg/kg): 2090 ng·h/mL; Cmax (Pharmacokinetics in mice; sc, subcutaneous 10 mg/kg (0.05 M NaPO4 buffer, pH 7.2), read-out: Cmax): 5600 ng/mL; Thalf (Pharmacokinetics in mice; oral 25 mg/kg): 18.90 min; time to reach Cmax (Pharmacokinetics in mice; oral 25 mg/kg): 15 min; Thalf (Pharmacokinetics in mice; subcutaneous 10 mg/kg): 12.27 min; time to reach Cmax (Pharmacokinetics in mice; subcutaneous 10 mg/kg): 5 min; Amoxicillin MIC, +68 μM Example 49 ([2]; MIC of amoxicillin with 68 μM Example 49): 3.2 µg/mL; Cefepime MIC, +17 μM Example 49 [2, 3]: 0.2 µg/mL; Ceftazidime MIC, +68 μM Example 49 [2, 4]: 0.2 µg/mL; Cefepime MIC, +17 μM Example 49 (C. freundii 7023771; [3]): 0.4 µg/mL; Ceftazidime MIC, +68 μM Example 49 (C. freundii 7023771; [4]): 3.2 µg/mL; Cefepime MIC, +17 μM Example 49 (E. cloacae 83989; [3]): 0.8 µg/mL; Ceftazidime MIC, +68 μM Example 49 (E. cloacae 83989; [4]): 12.8 µg/mL |
| CC1(C)S[C@@H]2[C@H](NC(=O)[C@H](N)c3ccc(O)cc3)C(=O)N2[C@H]1C(=O)O [Amoxicillin, reference compound] |  |  | Amoxicillin MIC, alone ([2]; antibiotic alone): >25.6 µg/mL |
| O=CC(CC=CCO)=C1O[C@@H]2CC(=O)N2C1C(=O)OCc1ccccc1 (stereo partly drawn) [Example 7, (5R)-3-[1-Formyl-5-hydroxy-pent-3-enylidene]-7-oxo-4-oxa-1-aza-bicyclo[3.2.0]heptane-2-carboxylic acid benzyl ester] | 78.4 nM |  | IC50 (SHV-1 β-lactamase; IC50, SHV-1): 217 nM |
| CO/N=C(\C(=O)N[C@@H]1C(=O)N2C(C(=O)[O-])=C(C[N+]3(C)CCCC3)CS[C@H]12)c1csc(N)n1 [Cefepime, reference compound] |  |  | Cefepime MIC, alone ([2]; antibiotic alone): 0.8 µg/mL; Cefepime MIC, alone (C. freundii 7023771; antibiotic alone): 0.8 µg/mL |
| COC(=O)C(CCCc1ccccc1)=C1O[C@@H]2CC(=O)N2C1C(=O)OC (stereo partly drawn) [Example 57, (5R)-3-(1-Methoxycarbonyl-4-phenyl-butylidene)-7-oxo-4-oxa-1-aza-bicyclo[3.2.0]heptane-2-carboxylic acid methyl ester] | 10.6 nM | 22.6 nM |  |
| C=CC/C(CO)=C1/O[C@@H]2CC(=O)N2C1C(=O)OCc1ccccc1 (stereo partly drawn) [Example 38a, (5R)-3-[1-Hydroxymethyl-but-3-en-(Z)-ylidene]-7-oxo-4-oxa-1-aza-bicyclo[3.2.0]heptane-2-carboxylic acid benzyl ester] | 1950 nM | 1710 nM |  |
| C=CCC(C(=O)O)=C1O[C@@H]2CC(=O)N2C1C(=O)OC (stereo partly drawn) [Example 32, (5R)-3-(1-Carboxy-but-3-enylidene)-7-oxo-4-oxa-1-aza-bicyclo[3.2.0]heptane-2-carboxylic acid methyl ester] | 122 nM | 339 nM |  |
| COC(=O)C1C(=C(C/C=C/c2ccccc2)C(=O)O)O[C@@H]2CC(=O)N12 (stereo partly drawn) [Example 34, (5R)-3-(1-Carboxy-4-phenyl-but-3-enylidene)-7-oxo-4-oxa-1-aza-bicyclo[3.2.0]heptane-2-carboxylic acid methyl ester] | 21.7 nM | 50.3 nM |  |
| O=C(OCc1ccccc1)C1C(=C(CO)C/C=C/c2ccccc2)O[C@@H]2CC(=O)N12 (stereo partly drawn) [Example 39, (5R)-3-(1-Hydroxymethyl-4-phenyl-but-3-enylidene)-7-oxo-4-oxa-1-aza-bicyclo[3.2.0]heptane-2-carboxylic acid benzyl ester] | 4120 nM | 5610 nM |  |
| O=C1OC(CI)CC1=C1O[C@@H]2CC(=O)N2C1C(=O)OCc1ccccc1 (single isomer, unassigned) [Example 41] | 0.2 nM | 0.4 nM |  |
| O=C1OC(CI)CC1=C1O[C@@H]2CC(=O)N2C1C(=O)OCc1ccccc1 (single isomer, unassigned) [Example 42] | 1.7 nM | 0.8 nM |  |
| COC(=O)C1(C/C=C/c2ccccc2)C(=CC(=O)O)O[C@@H]2CC(=O)N21 (single isomer, unassigned) [Example 35] | 1560 nM | 2310 nM |  |
| COC(=O)C1(C/C=C/c2ccccc2)C(=CC(=O)O)O[C@@H]2CC(=O)N21 (single isomer, unassigned) [Example 36] | 408 nM | 642 nM |  |
| O=C(O)C=C1O[C@@H]2CC(=O)N2C1(C/C=C/c1ccccc1)C(=O)OCc1ccccc1 (single isomer, unassigned) [Example 27] | 426 nM | 624 nM |  |
| COC(=O)C1(C/C=C/c2ccccc2)C(=CC=O)O[C@@H]2CC(=O)N21 (single isomer, unassigned) [Example 14] | 19600 nM | 85100 nM |  |
| O=CC=C1O[C@@H]2CC(=O)N2C1(C/C=C/c1ccccc1)C(=O)OCc1ccccc1 (single isomer, unassigned) [Example 6] | 2790 nM | 3950 nM |  |
| O=C(O)C=C1O[C@@H]2CC(=O)N2C1(C/C=C/c1ccccc1)C(=O)OCc1ccccc1 (single isomer, unassigned) [Example 28] | 45700 nM | 9320 nM |  |
| CC(C)(C)C(=O)OCOC(=O)C1C(=C(C/C=C/c2ccccc2)C(=O)O)O[C@@H]2CC(=O)N12 (stereo partly drawn) [Example 37, (5R)-3-(1-Carboxy-4-phenyl-but-3-enylidene)-7-oxo-4-oxa-1-aza-bicyclo[3.2.0]heptane-2-carboxylic acid 2,2-dimethyl-propionyloxymethyl ester] | 44.2 nM | 141 nM |  |
| O=CC=C1O[C@@H]2CC(=O)N2C1(C/C=C/c1ccccc1)C(=O)OCc1ccccc1 (stereo partly drawn) [Example 5, (5R)-7-oxo-3-[2-oxo-ethylidene]-2-(3-phenyl-allyl)-4-oxa-1-aza-bicyclo[3.2.0]heptane-2-carboxylic acid benzyl ester] | 4920 nM | 7140 nM |  |
| CC1C/C(=C2\O[C@@H]3CC(=O)N3C2C(=O)OCc2ccccc2)C(=O)O1 (single isomer, unassigned) [Example 46] | 0.4 nM | 0.5 nM |  |
| CC1C/C(=C2\O[C@@H]3CC(=O)N3C2C(=O)OCc2ccccc2)C(=O)O1 (single isomer, unassigned) [Example 45] | 1.7 nM |  | IC50 (SHV-1 β-lactamase; IC50, SHV-1): 3.4 nM |
| C=CCC(C=O)=C1O[C@@H]2CC(=O)N2C1C(=O)OC (stereo partly drawn) [Example 16, (5R)-3-[1-Formyl-but-3-enylidene]-7-oxo-4-oxa-1-aza-bicyclo[3.2.0]heptane-2-carboxylic acid methyl ester] | 65.2 nM | 80.5 nM |  |
| CC(C)(O/N=C(\C(=O)N[C@@H]1C(=O)N2C(C(=O)[O-])=C(C[n+]3ccccc3)CS[C@H]12)c1csc(N)n1)C(=O)O [Ceftazidime, reference compound] |  |  | Ceftazidime MIC, alone ([2]; antibiotic alone): >25.6 µg/mL; Ceftazidime MIC, alone (C. freundii 7023771; antibiotic alone): >25.6 µg/mL; Ceftazidime MIC, alone (E. cloacae 83989; antibiotic alone): >25.6 µg/mL |
